US6420416B2, “Method of treating epilepsy” (Daiichi Pharmaceutical Co., Ltd., priority 2000, dated 2002)

Tested on: rats subjected to a central fluid percussion injury
Assay: Morris water maze after central fluid percussion injury (traumatic brain injury model)
Assay type: in vivo, rat
Description: As shown in the graph, administration of nefiracetam at 3 mg/kg and 9 mg/kg were tested against a control group treated only with the pharmacological carrier ([…]). The rats were subjected to a central fluid percussion injury, which is a typical animal model for traumatic brain injury. Beginning one day after the injury, the rats were subjected to daily oral drug administrations at the 3 and 9 mg/kg dosage levels. The administration solutions contained the nefiracetam in […] at a concentration sufficient to provide the required dosage level in a single 1 ml/kg dosage of solution. The rats were then tested in the Morris water maze on days 11-15 after injury. On the days that the rats were tested, the drug was administered 15 minutes prior to testing. […] The improvement seen at the 9 mg/kg dosage correlates to a reduction in the cognitive deficit by 55% compared to the control.

Cc1cccc(C)c1NC(=O)CN1CCCC1=O [nefiracetam, N-(2,6-dimethyl-phenyl)-2(2-oxo-1-pyrrolidinyl)acetamide]
effectiveness in the water maze (3 mg/kg daily oral, days 11-15 after injury): not significantly effective
reduction in the cognitive deficit compared to the control (9 mg/kg daily oral from one day after injury, Morris water maze on days 11-15 after injury, drug 15 minutes prior to testing): 55%
improvement in brain function as measured by performance in the water maze (9 mg/kg daily oral, compared to the control and the 3 mg/kg dosage level, days 11-15 after injury): significant improvement
